Assay results: the CheMixHub ionic liquid set

Test: xn = mol fraction of the nth substance listed
Details: 101 kPa

CN(CCO)CCO + CCCC[n+]1ccn(C)c1.F[B-](F)(F)F + O
viscosity [mPa·s]
Details	293.15 K	303.15 K	313.15 K	323.15 K	333.15 K
x2 = 0.0987, x1 = 0.7994	86.7	48.2	28.8	18.4	12.32
x2 = 0.0989, x1 = 0.623	77.4	43.7	26.1	16.6	11.12
x2 = 0.0991, x1 = 0.4459	59.2	33.7	20.4	13.16	8.94
x2 = 0.0993, x1 = 0.2681	32.9	19.2	12.08	8.13	5.78
x2 = 0.0995, x1 = 0.0895	8.59	5.78	4.14	3.11	2.41
x2 = 0.1972, x1 = 0.7097	77.7	43.1	26	16.8	11.42
x2 = 0.1978, x1 = 0.5528	67.4	37.3	22.6	14.63	9.99
x2 = 0.1979, x1 = 0.3957	50.3	28.3	17.5	11.53	8.07
x2 = 0.1982, x1 = 0.2378	28.6	17	11.04	7.72	5.63
x2 = 0.1986, x1 = 0.0794	10.66	7.28	5.26	3.98	3.12
x2 = 0.2954, x1 = 0.6203	72.6	40.5	24.7	16.15	11.16
x2 = 0.2959, x1 = 0.4832	60.5	34.2	21.1	13.97	9.79
x2 = 0.2963, x1 = 0.3457	45	26.1	16.5	11.2	8.04
x2 = 0.2968, x1 = 0.2077	27.8	17.2	11.44	8.18	6.09
x2 = 0.2972, x1 = 0.0694	13.16	9.12	6.68	5.08	4
x2 = 0.3934, x1 = 0.531	68.7	39.1	24.3	16.14	11.32
x2 = 0.3939, x1 = 0.4136	56.5	32.9	20.8	14.05	10.02
x2 = 0.3944, x1 = 0.2958	43	25.9	16.8	11.65	8.49
x2 = 0.395, x1 = 0.1777	28.8	18.3	12.49	8.99	6.8
x2 = 0.3955, x1 = 0.0593	16.8	11.66	8.53	6.54	5.13
x2 = 0.4912, x1 = 0.442	66.5	38.9	24.6	16.7	11.88
x2 = 0.4917, x1 = 0.3442	57.5	34.4	21.8	14.94	10.7
x2 = 0.4923, x1 = 0.2461	44.3	27.4	18.2	12.72	9.42
x2 = 0.493, x1 = 0.1478	32.9	21.3	14.71	10.66	8.1
x2 = 0.4934, x1 = 0.0493	22.1	15.2	10.99	8.33	6.54
x2 = 0.5887, x1 = 0.3532	69.7	41.6	26.2	17.9	12.88
x2 = 0.5893, x1 = 0.275	60	37.1	23.5	16.3	11.86
x2 = 0.5898, x1 = 0.1966	49.1	30.6	20.7	14.67	10.75
x2 = 0.5903, x1 = 0.118	39.4	25.6	17.7	12.8	9.64
x2 = 0.5909, x1 = 0.0394	29.3	20	14.32	10.68	8.29
x2 = 0.6861, x1 = 0.2646	74.6	45.2	28.8	19.8	14.34
x2 = 0.6866, x1 = 0.2059	66.4	41	26.5	18.5	13.45
x2 = 0.687, x1 = 0.1472	57.5	35.8	24.1	17.1	12.65
x2 = 0.6874, x1 = 0.0884	47.3	30.3	20.9	15.08	11.36
x2 = 0.6877, x1 = 0.0295	40.3	26.6	18.8	13.79	10.55
x2 = 0.7831, x1 = 0.1762	84.7	51.6	32.9	22.7	16.5
x2 = 0.7836, x1 = 0.1371	78.6	48.6	31.5	22	16.01
x2 = 0.7839, x1 = 0.0979	72.2	44.8	29.8	20.9	15.35
x2 = 0.7842, x1 = 0.0588	65.6	41.8	28.1	20	14.73
x2 = 0.7845, x1 = 0.0196	56.4	36.7	25	18	13.44
x2 = 0.8801, x1 = 0.0879	102	62.1	40.3	27.1	19.5
x2 = 0.8804, x1 = 0.0684	99.2	60.7	39.7	26.8	19.3
x2 = 0.8805, x1 = 0.0294	90.7	56.4	37.2	25.5	18.5
x2 = 0.8806, x1 = 0.0098	80.9	50.9	33.8	23.7	17.3
x2 = 0.8806, x1 = 0.0488	94.5	58.3	38.5	26.1	18.9
